Data reported in patent US8765944B2, “Compounds for the treatment of hepatitis C” (priority 2010, dated 2014).

What follows are molecules tested on HCV pseudoparticles (assay: HCV pseudoparticle infection assay (luciferase reporter, Huh7 cells)). Conditions: Hepatitis C virus, genotype 1b, Huh-7, 48 h, HCV pseudoparticles (genotype 1b), luciferase activity 2 days after infection, class.
Assay type: cell-based, HCV (genotype 1b E1 and E2 envelope)

Structure (SMILES)	EC50
Cc1ccccc1C(=O)N1CCN(c2nc(Nc3ccc(C(=O)NS(=O)(=O)C4(CN(C)C)CC4)cc3)nc(OCC(F)(F)F)n2)CC1 [Example 8040]	1000 to 5000 nM
COc1ccc(C(=O)N2CCN(c3nc(Nc4ccc(C(=O)NS(=O)(=O)C5(CN(C)C)CC5)cc4)nc(OCC(F)(F)F)n3)CC2)cc1 [Example 8041]	1000 to 5000 nM
CC(C)(C)OC(=O)NCCS(=O)(=O)NC(=O)c1ccc(Nc2nc(NC3(c4ccc(Cl)cn4)CC3)nc(OCC(F)(F)F)n2)cc1 [Example 8042]	0.5 to 100 nM
